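How tested: cells in 96-well plates exposed to compound for 48 hours at five concentrations. GI50 = concentration required for 50% inhibition of growth. The concentration for full growth arrest is given as TGI.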
Key:
Experiment in all cases: NCI tumour cell line growth inhibition, 48 h
CCRF-CEM leukemia = tested on: CCRF-CEM leukemia
HCC-2998 colon = tested on: HCC-2998 colon
M14 melanoma = tested on: M14 melanoma
MALME-3M melanoma = tested on: MALME-3M melanoma
OVCAR-3 ovarian = tested on: OVCAR-3 ovarian
SK-MEL-2 melanoma = tested on: SK-MEL-2 melanoma
SK-OV-3 ovarian = tested on: SK-OV-3 ovarian
SR leukemia = tested on: SR leukemia
UACC-257 melanoma = tested on: UACC-257 melanoma
MCF7 breast = tested on: MCF7 breast

Row | SMILES | TGI (CCRF-CEM leukemia) | TGI (HCC-2998 colon) | TGI (M14 melanoma) | TGI (MALME-3M melanoma) | TGI (OVCAR-3 ovarian) | TGI (SK-MEL-2 melanoma) | TGI (SK-OV-3 ovarian) | TGI (SR leukemia) | TGI (UACC-257 melanoma) | GI50 (CCRF-CEM leukemia) | GI50 (HCC-2998 colon) | GI50 (M14 melanoma) | GI50 (MCF7 breast) | TGI (MCF7 breast) | GI50 (OVCAR-3 ovarian) | GI50 (SK-MEL-2 melanoma) | GI50 (SK-OV-3 ovarian) | GI50 (SR leukemia) | GI50 (UACC-257 melanoma) | GI50 (MALME-3M melanoma)
1 | O=C1CCC(=O)c2c1c(O)c1ccncc1c2O | 39.4 µM | 29.6 µM | 28.9 µM | 29.4 µM | 7.24 µM | 26.4 µM | 98.8 µM | 34.7 µM | 20.2 µM | – | – | – | – | – | – | – | – | – | – | –
2 | O=S(=O)(Nc1ccc(Cl)cc1Cl)c1ccc(-c2cnc(C3CC3)o2)cc1 | > 100 µM | 16.5 µM | > 88.2 µM | – | 15 µM | 42.2 µM | 99.4 µM | > 58.9 µM | 60.5 µM | 509 nM | 1600 nM | 0.473 µM | 350 nM | 41.2 µM | 439 nM | 3.03 µM | 7.1 µM | 420 nM | 10.5 µM | –
3 | O=C(Nc1cc(C(F)(F)F)ccc1Cl)c1cccc(NC2=C(Cl)C(=O)N(Cc3ccccc3)C2=O)c1 | > 100 µM | – | > 100 µM | – | > 100 µM | > 100 µM | > 100 µM | 3.16 µM | > 100 µM | 2710 nM | – | 82.6 µM | 5760 nM | 85.6 µM | 34300 nM | 30.8 µM | > 100 µM | 1260 nM | 53.7 µM | –
4 | O=C1c2cc3c(cc2-c2c1c1cc(Cl)c(Cl)cc1c(=O)n2C[C@H](O)CO)OCO3 | 19.1 µM | 3.29 µM | – | 0.156 µM | 0.0769 µM | 0.374 µM | 0.0536 µM | 3.78 µM | 0.217 µM | < 10 nM | 45.1 nM | – | – | – | 15.7 nM | 0.0488 µM | < 0.01 µM | < 10 nM | 0.0123 µM | 15.4 nM
5 | C[Si](C)(C)/C(I)=C/CO | 48.2 µM | – | > 100 µM | 74.9 µM | 73.1 µM | 38.4 µM | > 100 µM | – | 45.2 µM | – | – | – | – | – | – | – | – | – | – | –
6 | Cc1ccc(NC(=O)CCc2nnc(N)o2)cc1 | > 100 µM | > 100 µM | > 100 µM | > 100 µM | > 100 µM | > 100 µM | > 100 µM | – | > 100 µM | – | – | – | – | – | – | – | – | – | – | –
7 | COc1ccc(-c2nnc(N3CCN(C(=O)CN4CCN(c5ccccc5)CC4)CC3)nc2-c2ccc(OC)cc2)cc1 | > 100 µM | – | > 100 µM | > 100 µM | > 100 µM | 55.8 µM | 70.7 µM | – | > 100 µM | 5190 nM | – | 4.84 µM | 2800 nM | > 100 µM | 3390 nM | 9.13 µM | 14.5 µM | – | 6.17 µM | 2290 nM
8 | Cc1cc(N(CCCNc2ccnc3cc(Cl)ccc23)Cc2ccc3c(c2)OCO3)nc(N2CCOCC2)n1 | > 100 µM | 13.1 µM | – | – | 1.92 µM | 0.457 µM | – | – | 0.625 µM | 380 nM | 329 nM | – | 286 nM | 92 µM | 359 nM | 0.207 µM | – | – | 0.214 µM | –
9 | CCOC(=O)c1ccc(N=Nc2cc(C(=O)OCC)ccc2O)cc1 | > 100 µM | – | > 100 µM | – | – | – | > 100 µM | – | – | – | – | – | – | – | – | – | – | – | – | –
10 | O=C(O)c1ccc(C(=O)O)c2c(C(=O)O)ccc(C(=O)O)c12 | – | – | > 100 µM | > 100 µM | > 100 µM | > 100 µM | > 100 µM | > 100 µM | > 100 µM | – | – | – | – | > 100 µM | – | – | – | – | – | –
11 | CSc1ccccc1C#C/C=C\C#Cc1ccccc1N | > 100 µM | – | 20.1 µM | – | 3.98 µM | > 100 µM | 96.5 µM | – | > 100 µM | 4980 nM | – | 5.85 µM | – | – | 836 nM | 6.13 µM | 31.4 µM | – | 43.5 µM | –
12 | CC(C)=CCc1cc2c(cc1O)OC[C@H]1c3cc4c(cc3O[C@@H]21)OCO4 | 80.8 µM | – | > 100 µM | – | > 100 µM | – | > 100 µM | > 100 µM | > 100 µM | – | – | – | – | 58.7 µM | – | – | – | – | – | –
13 | Oc1ccc(Nc2c3ccccc3nc3occ(Cl)c23)cc1 | 6.12 µM | – | 26.8 µM | 8.62 µM | 8.76 µM | 7.26 µM | > 100 µM | 8.62 µM | – | 1420 nM | – | 3.79 µM | 3380 nM | 11.3 µM | 3120 nM | 2.62 µM | 4.77 µM | 2300 nM | – | 2130 nM
14 | C=CCC1(CN(C)C)CC/C(=C\c2ccc(Cl)cc2)C1=O (stereo not drawn) | 24 µM | > 70.5 µM | > 64.9 µM | > 100 µM | > 100 µM | > 100 µM | > 100 µM | 20.3 µM | 54.1 µM | – | – | – | – | – | – | – | – | – | – | –
15 | [N-]=[N+]=N/C1=C/CCCCC(=O)C1 | > 100 µM | > 100 µM | > 100 µM | > 100 µM | – | > 100 µM | > 100 µM | – | > 100 µM | – | – | – | – | – | – | – | – | – | – | –
16 | COC(=O)c1s/c(=N\C(=S)N(C)C)n(-c2ccc(Cl)cc2)c1C(=O)OC | > 100 µM | > 100 µM | > 100 µM | > 100 µM | > 100 µM | > 100 µM | > 10 µM | > 100 µM | > 100 µM | – | – | – | – | – | – | – | – | – | – | –
17 | C[Si](C)(C)/C(Br)=C\CCN1C(=O)CCC1=O | > 100 µM | > 100 µM | > 100 µM | > 100 µM | > 100 µM | > 100 µM | > 100 µM | > 100 µM | > 100 µM | – | – | – | – | – | – | – | – | – | – | –
18 | CN(C)CCSc1cc(-c2ccccc2)c2ccccc2n1 | 33.3 µM | – | 7.01 µM | 26 µM | – | 28.6 µM | 15.9 µM | > 100 µM | 24.8 µM | – | – | – | – | 27.8 µM | – | – | – | – | – | –
19 | COc1ccc(/C(=C\C=C(C#N)C#N)Sc2nc3ccccc3s2)cc1 | – | 16.9 µM | 9.08 µM | – | 17.7 µM | > 50 µM | 29.5 µM | – | 23.7 µM | – | 9020 nM | 2.52 µM | 2260 nM | 17.9 µM | 8260 nM | 34.1 µM | 14.3 µM | – | 10.3 µM | –
20 | COc1ccc(Cn2c(N)c(S(=O)(=O)c3ccc(Cl)cc3)c3nc(C#N)c(C#N)nc32)cc1 | – | – | > 50 µM | – | 19.4 µM | > 50 µM | 49.4 µM | > 50 µM | > 50 µM | – | – | 24.8 µM | 5850 nM | > 50 µM | 2900 nM | 29.8 µM | 10.8 µM | 29900 nM | > 50 µM | –
